Assay results taken from patent US12215085B2 (priority 2019, dated 2025).
Marks after values point to notes of the source that are not given here.

Tested on: rats with common carotid artery occlusion-induced vascular dementia
Experiment: Water maze test, common carotid artery occlusion-induced vascular dementia rats
Assay type: in vivo, rat
Settings: for adopted strategy for reaching the platform (the peripheral type and the random type %) / orientation angle for reaching the platform / speed for reaching the platform / swimming path length for reaching the platform / time for reaching the platform / Average speed / Number of crossing the platform / Orientation angle / Swimming path length in the platform area/total swimming path length × 100% / Time in the platform area / Time in the platform quadrants: succinate; for orientation angle for reaching the platform / speed for reaching the platform / swimming path length for reaching the platform / time for reaching the platform: x ± s
Text: A rat blood vessel dementia model was made according to the references [ZHAO Xian-lin, FANG Xiu-bin, LI Dong-pei. Establishment of Vascular Dementia Model in Rats, J Chin Med Univ, 2002, 31 (3): 166-168; WANG Yong-yan, Zhang Bo-li, Editor-in-chief. Modern Chinese Medicine Clinic and Research on Vascular Dementia, People's Medical Publishing House, October 2003, First Version 214]: Chloral hydrate 0.4 g/kg was intraperitoneally injected for anesthetizing rats, and bilateral common carotid arteries were isolated and ligated. The animals were fed for 16 weeks, divided into groups on the last 7 days, and administered. The normal control group and the model group were administrated through the intragastric route with distilled water by 0.5 ml/100 g, the positive control group was administrated through the intragastric route with donepezil hydrochloride by 1.75 mg/kg (equivalent to 3.85 times the clinical daily dosage of 5 mg/70 kg), the low, medium and high-dose groups of Crystal Form A of octahydroaminoacridine succinate were administrated through the intragastric route with Crystal Form A of octahydroaminoacridine succinate by 0.7, 1.4 and 2.8 mg/kg (equivalent to 0.96, 1.92 and 3.85 times the clinical daily dosage of 8 mg/70 kg). The water maze test and the step-down test were carried out after continuous administration for 7 days, and the administration was continued during the test period. The water maze test was continuously performed for 7 days, in the first 6 days, in four different water entry points of quadrants 1, 2, 3 and 4, the time, the swimming path length, the orientation angle and the average speed of the rat reaching the platform were measured, meanwhile, the strategy for reaching the platform adopted by rats was observed, on the 7th day, the platform was removed, the number of rats crossing the platform in 2 minutes, the residence time in the platform area, the residence time in the platform quadrants, the percentage of the swimming path length in the platform area quadrants to the total swimming path length, the average speed and the orientation angle were measured. After the water maze test was finished, the step-down test was performed, and the number of electric shocks (or called as the error number) received by each rat within 5 minutes was recorded as the learning performance. The test was performed again after 24 hours, namely, the memory retention test, and the latent period for stepping-down the platform for the first time and the error number in five minutes were recorded. After the step-down test was finished, the brain was taken quickly for pathological examination, and the pathological changes of the hippocampus and the cortex were observed.

[1] = Day 1, 0.7 mg/kg intragastric, 0.7 mg/kg
[2] = Day 1, 1.4 mg/kg intragastric, 1.4 mg/kg
[3] = Day 1, 2.8 mg/kg intragastric, 2.8 mg/kg
[4] = Day 2, 0.7 mg/kg intragastric, 0.7 mg/kg
[5] = Day 2, 1.4 mg/kg intragastric, 1.4 mg/kg
[6] = Day 2, 2.8 mg/kg intragastric, 2.8 mg/kg
[7] = Day 3, 0.7 mg/kg intragastric, 0.7 mg/kg
[8] = Day 3, 1.4 mg/kg intragastric, 1.4 mg/kg
[9] = Day 3, 2.8 mg/kg intragastric, 2.8 mg/kg
[10] = Day 4, 0.7 mg/kg intragastric, 0.7 mg/kg
[11] = Day 4, 1.4 mg/kg intragastric, 1.4 mg/kg
[12] = Day 4, 2.8 mg/kg intragastric, 2.8 mg/kg
[13] = Day 5, 0.7 mg/kg intragastric, 0.7 mg/kg
[14] = Day 5, 1.4 mg/kg intragastric, 1.4 mg/kg
[15] = Day 5, 2.8 mg/kg intragastric, 2.8 mg/kg
[16] = Day 6, 0.7 mg/kg intragastric, 0.7 mg/kg
[17] = Day 6, 1.4 mg/kg intragastric, 1.4 mg/kg
[18] = Day 6, 2.8 mg/kg intragastric, 2.8 mg/kg
[19] = Day 7, 0.7 mg/kg intragastric, 0.7 mg/kg
[20] = Day 7, 1.4 mg/kg intragastric, 1.4 mg/kg
[21] = Day 7, 2.8 mg/kg intragastric, 2.8 mg/kg

For `Nc1c2c(nc3c1CCCC3)CCCC2.O=C(O)CCC(=O)O` [Crystal Form A, 9-amino-1,2,3,4,5,6,7,8-octahydroacridine succinate], the “swimming path length for reaching the platform vs model group” value (1.4 mg/kg, Day 4, P<0.05) was “obviously shortened”, the “latent period for reaching the platform vs model group” value (1.4 mg/kg, Day 4 to Day 6, P<0.05 or P<0.01) was “obviously shortened” and the “swimming path length for reaching the platform vs model group” value (2.8 mg/kg, Day 3, P<0.05) was “obviously shortened”. For the same compound, the “latent period for reaching the platform vs model group” value (2.8 mg/kg, Day 3 to Day 6, P<0.05 or P<0.01) was “obviously shortened”, the “orientation angle and swimming speed vs model group” value (0.7, 1.4 and 2.8 mg/kg, Day 1 to Day 6) was “not obviously changed” and the “residence time in the platform quadrants, average speed, orientation angle and percentage of the swimming path length in the platform area quadrants to the total swimming path length vs model group” value (0.7, 1.4 and 2.8 mg/kg, Day 7) was “not obviously changed”. The “number of rats crossing the platform within 2 minutes vs model group” value (1.4 and 2.8 mg/kg, Day 7, P<0.05) was “obviously increased”, the “conversion from the peripheral type or the random type to the tendency type or the linear type in the strategy for looking for the platform” value (1.4 and 2.8 mg/kg, P<0.05 or P<0.01) was “obviously increased” and the “adopted strategy for reaching the platform (the peripheral type and the random type %)” value [1] was 75.00%. For the same compound, the “orientation angle for reaching the platform” value [1] was 64.44 ± 24.84 °, the “speed for reaching the platform” value [1] was 21.68 ± 6.14 cm/s and the “swimming path length for reaching the platform” value [1] was 1250.31 ± 599.61 cm. The “time for reaching the platform” value [1] was 60.40 ± 30.23 s, the “adopted strategy for reaching the platform (the peripheral type and the random type %)” value [2] was 92.50% and the “orientation angle for reaching the platform” value [2] was 63.00 ± 21.34 °. For the same compound, the “speed for reaching the platform” value [2] was 22.93 ± 7.28 cm/s, the “swimming path length for reaching the platform” value [2] was 1491.17 ± 529.46 cm and the “time for reaching the platform” value [2] was 75.55 ± 32.44 s. For the same compound, the “adopted strategy for reaching the platform (the peripheral type and the random type %)” value [3] was 87.50%, the “orientation angle for reaching the platform” value [3] was 75.34 ± 20.00 ° and the “speed for reaching the platform” value [3] was 23.52 ± 5.71 cm/s. The “swimming path length for reaching the platform” value [3] was 1555.98 ± 522.10 cm, the “time for reaching the platform” value [3] was 69.25 ± 15.97 s and the “adopted strategy for reaching the platform (the peripheral type and the random type %)” value [4] was 86.00%. For the same compound, the “orientation angle for reaching the platform” value [4] was 52.13 ± 14.28 °, the “speed for reaching the platform” value [4] was 23.68 ± 5.10 cm/s and the “swimming path length for reaching the platform” value [4] was 1368.59 ± 636.46 cm. The “time for reaching the platform” value [4] was 55.04 ± 31.39 s, the “adopted strategy for reaching the platform (the peripheral type and the random type %)” value [5] was 65.00% and the “orientation angle for reaching the platform” value [5] was 48.91 ± 15.52 °. For the same compound, the “speed for reaching the platform” value [5] was 29.02 ± 6.70 cm/s, the “swimming path length for reaching the platform” value [5] was 917.85 ± 346.36 cm and the “time for reaching the platform” value [5] was 38.71 ± 18.28 s. The “adopted strategy for reaching the platform (the peripheral type and the random type %)” value [6] was 82.50%, the “orientation angle for reaching the platform” value [6] was 57.20 ± 22.99 ° and the “speed for reaching the platform” value [6] was 28.32 ± 7.08 cm/s. The “swimming path length for reaching the platform” value [6] was 1025.55 ± 559.44 cm, the “time for reaching the platform” value [6] was 40.76 ± 23.88 s and the “adopted strategy for reaching the platform (the peripheral type and the random type %)” value [7] was 66.67%. For the same compound, the “orientation angle for reaching the platform” value [7] was 57.18 ± 14.54 °, the “speed for reaching the platform” value [7] was 26.27 ± 6.15 cm/s and the “swimming path length for reaching the platform” value [7] was 698.11 ± 448.85 cm. The “time for reaching the platform” value [7] was 29.31 ± 15.94 s, the “adopted strategy for reaching the platform (the peripheral type and the random type %)” value [8] was 65.00* % and the “orientation angle for reaching the platform” value [8] was 53.59 ± 14.56 °. The “speed for reaching the platform” value [8] was 25.25 ± 5.42 cm/s, the “swimming path length for reaching the platform” value [8] was 804.05 ± 351.90 cm and the “time for reaching the platform” value [8] was 30.21 ± 14.13 s. The “adopted strategy for reaching the platform (the peripheral type and the random type %)” value [9] was 60.00* %, the “orientation angle for reaching the platform” value [9] was 41.65 ± 17.28 ° and the “speed for reaching the platform” value [9] was 24.59 ± 6.25 cm/s. For the same compound, the “swimming path length for reaching the platform” value [9] was 512.17 ± 265.98 cm, the “time for reaching the platform” value [9] was 21.75 ± 9.58 s and the “adopted strategy for reaching the platform (the peripheral type and the random type %)” value [10] was 69.00%. For the same compound, the “orientation angle for reaching the platform” value [10] was 55.89 ± 20.65 °, the “speed for reaching the platform” value [10] was 25.53 ± 8.12 cm/s and the “swimming path length for reaching the platform” value [10] was 838.00 ± 799.29 cm. The “time for reaching the platform” value [10] was 35.34 ± 35.48 s, the “adopted strategy for reaching the platform (the peripheral type and the random type %)” value [11] was 42.50** % and the “orientation angle for reaching the platform” value [11] was 50.23 ± 20.86 °. The “speed for reaching the platform” value [11] was 28.54 ± 9.09 cm/s, the “swimming path length for reaching the platform” value [11] was 461.53 ± 216.01 cm and the “time for reaching the platform” value [11] was 19.79 ± 10.95 s. The “adopted strategy for reaching the platform (the peripheral type and the random type %)” value [12] was 62.50* %, the “orientation angle for reaching the platform” value [12] was 57.00 ± 17.94 ° and the “speed for reaching the platform” value [12] was 27.72 ± 6.59 cm/s. The “swimming path length for reaching the platform” value [12] was 827.58 ± 463.98 cm, the “time for reaching the platform” value [12] was 22.79 ± 10.04 s and the “adopted strategy for reaching the platform (the peripheral type and the random type %)” value [13] was 67.00%. The “orientation angle for reaching the platform” value [13] was 62.38 ± 27.61 °, the “speed for reaching the platform” value [13] was 24.14 ± 7.38 cm/s and the “swimming path length for reaching the platform” value [13] was 878.23 ± 464.48 cm. For the same compound, the “time for reaching the platform” value [13] was 71.16 ± 34.92 s, the “adopted strategy for reaching the platform (the peripheral type and the random type %)” value [14] was 60.00% and the “orientation angle for reaching the platform” value [14] was 55.03 ± 19.71 °. The “speed for reaching the platform” value [14] was 29.15 ± 10.97 cm/s, the “swimming path length for reaching the platform” value [14] was 515.67 ± 565.72 cm and the “time for reaching the platform” value [14] was 16.28 ± 11.42 s. The “adopted strategy for reaching the platform (the peripheral type and the random type %)” value [15] was 57.50%, the “orientation angle for reaching the platform” value [15] was 55.78 ± 27.48 ° and the “speed for reaching the platform” value [15] was 27.44 ± 4.86 cm/s. For the same compound, the “swimming path length for reaching the platform” value [15] was 676.75 ± 429.93 cm, the “time for reaching the platform” value [15] was 21.57 ± 17.15 s and the “adopted strategy for reaching the platform (the peripheral type and the random type %)” value [16] was 66.60%. For the same compound, the “orientation angle for reaching the platform” value [16] was 46.48 ± 22.04 °, the “speed for reaching the platform” value [16] was 22.02 ± 6.73 cm/s and the “swimming path length for reaching the platform” value [16] was 606.62 ± 360.87 cm. For the same compound, the “time for reaching the platform” value [16] was 37.72 ± 30.12 s, the “adopted strategy for reaching the platform (the peripheral type and the random type %)” value [17] was 60.00* % and the “orientation angle for reaching the platform” value [17] was 53.94 ± 12.47 °. For the same compound, the “speed for reaching the platform” value [17] was 23.52 ± 2.43 cm/s, the “swimming path length for reaching the platform” value [17] was 393.13 ± 236.85 cm and the “time for reaching the platform” value [17] was 16.62 ± 8.69 s. The “adopted strategy for reaching the platform (the peripheral type and the random type %)” value [18] was 55.00* %, the “orientation angle for reaching the platform” value [18] was 52.70 ± 15.27 ° and the “speed for reaching the platform” value [18] was 23.55 ± 2.66 cm/s. For the same compound, the “swimming path length for reaching the platform” value [18] was 433.81 ± 327.88 cm, the “time for reaching the platform” value [18] was 18.98 ± 13.68 s and the Average speed [19] was 24.04 ± 7.96 cm/s. The “Number of crossing the platform” value [19] was 5.55 ± 4.47, the Orientation angle [19] was 5.56 ± 4.47 ° and the “Swimming path length in the platform area/total swimming path length × 100%” value [19] was 26.83 ± 7.77%. For the same compound, the “Time in the platform area” value [19] was 1.86 ± 1.78 s, the “Time in the platform quadrants” value [19] was 33.93 ± 11.68 s and the Average speed [20] was 28.44 ± 9.02 cm/s. The “Number of crossing the platform” value [20] was 12.20 ± 5.99, the Orientation angle [20] was 12.20 ± 5.99 ° and the “Swimming path length in the platform area/total swimming path length × 100%” value [20] was 31.89 ± 9.92%. For the same compound, the “Time in the platform area” value [20] was 3.18 ± 2.02 s, the “Time in the platform quadrants” value [20] was 40.31 ± 12.72 s and the Average speed [21] was 26.15 ± 5.40 cm/s. The “Number of crossing the platform” value [21] was 10.40 ± 4.40, the Orientation angle [21] was 10.40 ± 4.40 ° and the “Swimming path length in the platform area/total swimming path length × 100%” value [21] was 28.40 ± 8.75%. The “Time in the platform area” value [21] was 3.23 ± 3.70 s and the “Time in the platform quadrants” value [21] was 33.72 ± 10.48 s.
